Read-outs that look alike come from different tables or passages of the source.
Experiments:
NDM-1 = molecular target: T1, NDM-1 (Klebsiella pneumoniae, UniProt C7C422); assay: Inhibition of IPM hydrolysis by purified NDM-1, Ki by Lineweaver-Burk plots; assay type: biochemical; conditions: IPM as substrate, competitive model, mean of three replicates; read-out: Inhibition constant Ki NDM-1
T1 construct: made in house
Procedure: (§1) MBL (10 nM) was mixed with the inhibitors and incubated for 5 min at 30°C. IPM was added to reach a concentration of 150 μM, and the velocity of IPM hydrolysis was monitored at 298 nm. The assay was performed at 30°C using 10 mM HEPES (pH 7.5) buffer containing 200 mM NaCl and 50 μg/ml bovine serum albumin (BSA) for IMP-1, NDM-1, VIM-2, and SMB-1. For SFH-1 and L1, another 10 mM HEPES (pH 7.5) buffer containing 200 mM NaCl, 20 μM ZnSO4, and 50 μg/ml BSA was used.
(§2) Initial velocities (vo) were measured after varying the concentrations of IPM and inhibitors, and inverse velocities (1/vo) were plotted against inverse IPM concentrations […]. Lineweaver-Burk plots were constructed to obtain the inhibition constant (Ki) with the competitive inhibition model using the SigmaPlot 13 suite (Hulinks).

VIM-2 = molecular target: T2, VIM-2 (Escherichia coli, UniProt Q5U7L7); assay: Inhibition of IPM hydrolysis by purified VIM-2, Ki by Lineweaver-Burk plots; assay type: biochemical; conditions: IPM as substrate, competitive model, mean of three replicates; read-out: Inhibition constant Ki VIM-2
T2 construct: made in house
Procedure: as §1, §2

IMP-1 = molecular target: T3, IMP-1 (Serratia marcescens, UniProt P52699); assay: Inhibition of IPM hydrolysis by purified IMP-1, Ki by Lineweaver-Burk plots; assay type: biochemical
T3 construct: made in house
T3 sequence (P52699 19-246 limits assumed): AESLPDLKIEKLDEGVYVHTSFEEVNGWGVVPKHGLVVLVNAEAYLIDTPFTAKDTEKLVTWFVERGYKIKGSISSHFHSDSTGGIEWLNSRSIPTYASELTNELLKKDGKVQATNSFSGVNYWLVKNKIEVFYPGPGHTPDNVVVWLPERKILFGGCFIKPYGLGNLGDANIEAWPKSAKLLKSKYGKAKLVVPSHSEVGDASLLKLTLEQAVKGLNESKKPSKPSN
Procedure: as §1, §2

[1] = tested on: IMP producers rather than NDM/VIM producers; conditions: cited from earlier work
HeLa cells = assay: Toxicity assay in HeLa cells (CellTiter 96 AQueous); assay type: cell-based; conditions: 24 h exposure, cell proliferation assay
Procedure: HeLa cells were seeded at 5,000 cells per well in 96-well plates and cultured in Dulbecco’s modified Eagle’s medium (DMEM) (Wako Pure Chemical Industries, Osaka, Japan). After incubation for 24 h at 37°C with 5% CO2, staurosporine (Sigma-Aldrich, St. Louis, MO) and SHCs were added to each well (final DMSO concentration was 1%), after which the plates were incubated for another 24 h. Twenty microliters of tetrazolium solution, obtained from a CellTiter 96 AQueous one-solution cell proliferation assay kit (Promega, Madison, WI), was added into each well. The plate was incubated for 3 h under the same conditions mentioned above, and the absorbance at 490 nm was measured for the determination of cell proliferation.

[2] = tested on: IMP-1-producing E. coli NUBL-24; assay: Mouse infection model, E. coli NUBL-24, survival; assay type: in vivo, mice; conditions: MPM 0.8 mg/kg and SPC 10 mg/kg versus MPM alone, E. coli NUBL-24 1 × 10^7 CFU
Procedure: (§3) All experiments were approved by the Nagoya University Animal Ethics Committee, and all experiments were performed in a manner that minimized animal suffering. Male CD1 mice (4 weeks old; 20 to 25 g body weight) were purchased from Charles River Laboratories Japan (Yokohama, Japan). E. coli NUBL-24 (blaIMP-1) and K. pneumoniae MS5674 (blaNDM-1 and blaVIM-1) strains were inoculated on LB agar plates and grown for 18 h at 37°C. Bacteria were then scraped from the plates, and their concentration was adjusted to 5 × 10^6 to 1 × 10^7 CFU in saline solution containing 5% mucin; this solution was then i.p. injected into the mice. At 1 and 3 h after infection, saline solution, MPM, inhibitors, and a combination of MPM and inhibitor were i.p. injected. Mice were monitored for 7 days to formulate survival curves, after which they were euthanized by CO2 asphyxiation.

[3] = tested on: E. coli BL21(DE3)/pET-KHM-1; assay: Susceptibility testing, KHM-1-producing E. coli; assay type: cell-based; conditions: Escherichia coli
Procedure: (§4) MICs were determined via the microdilution method according to the CLSI guidelines ([38]). In brief, 5 × 10^4 bacterial cells were inoculated in 100 μl of cation-adjusted Mueller-Hinton broth (Becton, Dickinson and Company, Franklin Lakes, NJ) containing the β-lactams and appropriately diluted inhibitors. The final concentration of DMSO was maintained at 2% in the assays. The tested plates were then incubated at 35°C for 16 to 20 h. The MIC value was determined as the lowest concentration of tested β-lactams where no bacterial growth was visibly observed. The optical density at 600 nm (OD600) value was measured using a plate reader for drawing the heat maps. The FIC index value was calculated using the following equation: FIC index=MIC of β-lactam with inhibitor/MIC of β-lactam alone+MIC of inhibitor with β-lactam/MIC of inhibitor alone

[4] = tested on: E. coli BL21(DE3)/pET-SPM-1; assay: Susceptibility testing, SPM-1-producing E. coli; assay type: cell-based; conditions: Escherichia coli
Procedure: as §4

[5] = tested on: IMP-1-producing Acinetobacter spp.; assay: Susceptibility testing, 8 IMP-1-producing Acinetobacter spp. isolates; assay type: cell-based; conditions: addition of SPC, concentration not given (Fig. S5)
Procedure: as §4

E. coli DH5α/pBC-TMB-2 = assay: Susceptibility testing, TMB-2-producing E. coli; assay type: cell-based; conditions: Escherichia coli
Procedure: as §4

[6] = tested on: E. coli BL21(DE3)/pET-DIM-1; assay: Susceptibility testing, DIM-1-producing E. coli; assay type: cell-based; conditions: Escherichia coli
Procedure: as §4

[7] = tested on: P. aeruginosa PAO1/pME-NDM-1; assay: Susceptibility testing, NDM-1-producing P. aeruginosa PAO1; assay type: cell-based; conditions: Pseudomonas aeruginosa
Procedure: as §4

[8] = tested on: IMP-type MBL-producing Enterobacteriaceae; assay: Susceptibility testing, 19 IMP-type MBL-producing Enterobacteriaceae isolates; assay type: cell-based
Procedure: as §4

[9] = tested on: E. coli BL21(DE3)/pET-SIM-1; assay: Susceptibility testing, SIM-1-producing E. coli; assay type: cell-based; conditions: Escherichia coli
Procedure: as §4

[10] = Human liver microsomal stability test; assay type: in vitro ADME; conditions: 100 nM compound, 0.1 mg protein/ml, 35 min, 37°C
Procedure: Human liver microsomal stability tests were performed by Sumika Chemical Analysis Service (Osaka, Japan). Compounds (100 nM) were incubated with human liver microsomes (0.1 mg protein/ml) for 35 min at 37°C and subjected to liquid chromatography-tandem mass spectrometry (LC-MS/MS) for quantification of the loss of the tested compounds.

[11] = tested on: P. aeruginosa PAO1/pME-IMP-1; assay: Susceptibility testing, IMP-1-producing P. aeruginosa PAO1; assay type: cell-based; conditions: Pseudomonas aeruginosa
Procedure: as §4

[12] = tested on: dually NDM-1/VIM-1-producing Klebsiella pneumoniae MS5674; assay: Mouse infection model, K. pneumoniae MS5674, survival; assay type: in vivo, mice; conditions: MPM 4 mg/kg and SPC 10 mg/kg versus MPM alone, K. pneumoniae MS5674 1 × 10^7 CFU
Procedure: as §3

[13] = tested on: NDM-type MBL-producing Enterobacteriaceae; assay: Susceptibility testing, 14 NDM-type MBL-producing Enterobacteriaceae isolates; assay type: cell-based; conditions: NDM producers
Procedure: as §4

[14] = tested on: P. aeruginosa PAO1/pME-VIM-2; assay: Susceptibility testing, VIM-2-producing P. aeruginosa PAO1; assay type: cell-based; conditions: Pseudomonas aeruginosa
Procedure: as §4

E. coli DH5α/pBC-VIM-2 = assay: Susceptibility and checkerboard testing, VIM-2-producing E. coli; assay type: cell-based, Escherichia coli; conditions: for MIC: Escherichia coli
Procedure: as §4
(§5) Unless noted otherwise, the FIC index was defined as the lowest value among all obtained values. The synergistic effect was defined as the effect observed when the FIC index value was ≤0.5.

E. coli DH5α/pBC-NDM-1 = assay: Susceptibility and checkerboard testing, NDM-1-producing E. coli; assay type: cell-based, Escherichia coli; conditions: for MIC: Escherichia coli
Procedure: as §4, §5

E. coli DH5α/pBC-IMP-1 = assay: Susceptibility and checkerboard testing, IMP-1-producing E. coli; assay type: cell-based, Escherichia coli; conditions: for MIC: Escherichia coli
Procedure: as §4, §5

[15] = read-out: MIC of MPM + inhibitor (8 μg/ml)
[16] = read-out: MIC of MPM + inhibitor (32 μg/ml)
[17] = PAO1, read-out: MIC of MPM + inhibitor (10 μg/ml)
[18] = PAO1, read-out: MIC of MPM + inhibitor (50 μg/ml)

T1 sequence (C7C422 29-270 limits assumed): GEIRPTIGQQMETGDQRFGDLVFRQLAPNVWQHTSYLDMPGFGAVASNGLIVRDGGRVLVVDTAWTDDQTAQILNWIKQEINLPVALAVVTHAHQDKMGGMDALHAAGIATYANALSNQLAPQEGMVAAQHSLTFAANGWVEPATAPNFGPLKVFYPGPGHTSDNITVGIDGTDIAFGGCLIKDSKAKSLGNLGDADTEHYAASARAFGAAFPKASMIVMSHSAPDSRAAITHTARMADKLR

Structure (SMILES): Cc1c(C(=O)O)c(S(N)(=O)=O)c(C)n1C [Compound 7, 1,2,5-trimethyl-4-sulfamoylpyrrole-3-carboxylic acid]
- Ki (NDM-1): 9.08 µM
- Ki (VIM-2): 0.42 µM
- Ki (IMP-1): 1.23 µM

Structure (SMILES): Cc1c(C(=O)O)c(S(N)(=O)=O)c(C)n1C1CC1 [Compound 9, 1-cyclopropyl-2,5-dimethyl-4-sulfamoylpyrrole-3-carboxylic acid]
- Ki (NDM-1): 4.85 µM
- Ki (VIM-2): 1.7 µM
- Ki (IMP-1): 14.1 µM

Structure (SMILES): Cc1c(C(=O)O)c(S(N)(=O)=O)c(C)n1-c1ccccc1 [Compound 10, 2,5-dimethyl-1-phenyl-4-sulfamoylpyrrole-3-carboxylic acid]
- Ki (NDM-1): 10.2 µM
- Ki (VIM-2): 20.8 µM
- Ki (IMP-1): 7.51 µM

Structure (SMILES): CC/C(C(=O)[O-])=C(\CC)C(=O)[O-].[Na+].[Na+] [ME1071]
- Selectivity between IMP and NDM/VIM producers [1]: superior for IMP

Structure (SMILES): O=C(O)/C(S)=C/c1c(Cl)ccc(Cl)c1Cl [ML302F]
- Selectivity between IMP and NDM/VIM producers [1]: superior for IMP

Structure (SMILES): CN1CCN(NC(=O)CN2C(=O)/C(=C/c3c(Cl)ccc(Cl)c3Cl)SC2=S)CC1 [ML302]
- Selectivity between IMP and NDM/VIM producers [1]: superior for IMP

Structure (SMILES): CCc1c(C(=O)O)c(S(N)(=O)=O)c(CC)n1C [SPC, 2,5-diethyl-1-methyl-4-sulfamoylpyrrole-3-carboxylic acid]
- Toxicity in HeLa cells (HeLa cells): low toxicity
- Mortality of infected mice under MPM-SPC combination therapy [2]: significantly reduced the mortality
- MIC [3, 15]: 0.125 µg/mL
- MIC [3, 16]: 0.063 µg/mL
- MIC [4, 15]: 0.063 µg/mL
- MIC [4, 16]: 0.063 µg/mL
- Isolates whose MPM MIC decreased to susceptibility criteria (MIC ≤2 μg/ml) [5]: 6/8
- MIC (E. coli DH5α/pBC-TMB-2; [15]): 0.063 µg/mL
- MIC (E. coli DH5α/pBC-TMB-2; [16]): 0.031 µg/mL
- MIC [6, 15]: 2 µg/mL
- MIC [6, 16]: 0.063 µg/mL
- MIC [7, 17]: 4 µg/mL
- MIC [7, 18]: 4 µg/mL
- Isolates whose MPM MIC decreased to susceptibility criteria (MIC ≤1 μg/ml) ([8]; addition of inhibitor, concentration not given (Fig. S5), IMP-producing Enterobacteriaceae): 17/19
- Isolates with equal or increased reactivity toward SPC instead of SFC ([8]; reduction in MPM MIC, 4 μg/ml SPC and SFC, IMP producers): 18/19
- MIC [9, 15]: 1 µg/mL
- MIC [9, 16]: 0.125 µg/mL
- Stability in human liver microsomes [10]: high stability
- MIC [11, 17]: 64 µg/mL
- MIC [11, 18]: 16 µg/mL
- Mortality of infected mice under MPM-SPC combination therapy [12]: significantly reduced the mortality
- Isolates whose MPM MIC decreased to susceptibility criteria (MIC ≤1 μg/ml) ([13]; addition of inhibitor, concentration not given (Fig. S5)): 7/14
- Isolates with equal or increased reactivity toward SPC instead of SFC ([13]; reduction in MPM MIC, 4 μg/ml SPC and SFC): 14/14
- MIC [14, 17]: 8 µg/mL
- MIC [14, 18]: 4 µg/mL
- Reduction in CAZ MIC (E. coli DH5α/pBC-VIM-2; E. coli DH5α/pBC-VIM-2, 2 μg/ml compound): 16 fold
- MIC (E. coli DH5α/pBC-VIM-2; read-out: MIC of CAZ + inhibitor (8 μg/ml)): 1 µg/mL
- MIC (E. coli DH5α/pBC-VIM-2; read-out: MIC of CAZ + inhibitor (32 μg/ml)): 1 µg/mL
- Ki (NDM-1): 0.84 µM
- Ki (VIM-2): 0.02 µM
- Reduction in MPM MIC (E. coli DH5α/pBC-NDM-1; E. coli DH5α/pBC-NDM-1, 2 μg/ml compound): 256 fold
- MIC (E. coli DH5α/pBC-NDM-1; [15]): ≤ 0.25 µg/mL
- MIC (E. coli DH5α/pBC-NDM-1; [16]): ≤ 0.25 µg/mL
- Reduction in MPM MIC (E. coli DH5α/pBC-IMP-1; E. coli DH5α/pBC-IMP-1, 2 μg/ml compound): 32 fold
- MIC (E. coli DH5α/pBC-IMP-1; [15]): 0.031 µg/mL
- MIC (E. coli DH5α/pBC-IMP-1; [16]): 0.031 µg/mL
- Ki (IMP-1): 0.26 µM

Structure (SMILES): NCCN[C@H]1CC[C@H](CC(=O)N[C@H]2Cc3cccc(C(=O)O)c3OB2O)CC1 [VNRX-5133, taniborbactam]
- Selectivity between IMP and NDM/VIM producers [1]: superior for NDM/VIM

Reference: PMC7078479, “Sulfamoyl Heteroarylcarboxylic Acids as Promising Metallo-β-Lactamase Inhibitors for Controlling Bacterial Carbapenem Resistance” (mBio, 2020)
